The record followed here is patent US20080096853A1, “Edible Compositions Comprising A Primary Lipid, A Co-Lipid, A Lipohilic Physiologically Active Ingredient And Water, And Their Preparation” (priority 2004, published 2008).

Holding throughout (format): physicochemical
Series [1] can be described thus: USP24 dissolution test type II: solubility of β-carotene in bile extract solution. The note with it: 900 ml bile extract solution in aqueous buffer, 37° C., stirring in USP24 for 60 min. How it is done:
6 mg of β-carotene and 2 g of lactic fatty acid ester+glycerol/propylene glycol reaction product (LFEGPG) were dissolved at 55° C. in 10 ml of ethanol. This solution was added dropwise to 200 ml of intensely agitated Tris buffer ([…]). After 15 minutes of stirring, the solution was cooled down and the pH adjusted to 4.0 with 1M HCl. The precipitate was then filtrated and LFEGPG lipid phase containing molecularly-dispersed β-carotene was used further in this experiment.
The precipitate was added to the USP24 vessel (dissolution test type II) loaded with 900 ml of bile extract solution in aqueous buffer at 37° C. As a control, 6 mg of free crystalline β-carotene was added to the same buffered bile solution in USP24.

Series [2] is described as follows: Incorporation of β-carotene into LFEGPG in model systems (UV-Vis after centrifugation and hexane extraction). Here is the method: • (1) A. 1 g LFEGPG and 2.4 mg pure β-carotene were added to 100 ml water, followed by magnet stirring for 1 h at 50° C. 1.7 mg β-carotene/g dry LFEGPG were detected by UV-Vis spectrophotometry after centrifugation and extraction of β-carotene from the collected lipid phase by hexane. • B. 1 g LFEGPG and 2.4 mg pure β-carotene were melted together and added dropwise to 100 ml water, followed by magnet stirring for 20 min at 50° C. Ultra Turrax was applied to homogenize the sample, then the sample was magnet stirred for another 10 min at 50° C. […] Polymorphic or mesomorphic lipid phases containing molecularly dispersed β-carotene were derived (judged from appearance under microscope, however also a few free β-carotene crystals were detected, thus not completely molecularly dispersed). • (4) As the solubility of β-carotene in ethanol is limited, complete molecular dispersion of β-carotene was achieved by the use of non food-grade solvents such as chloroform. […] The lipid phase was investigated under the optical light microscope, and no β-carotene crystals could be detected. • (5) 0.2 g of LFEGPG and 2 mg β-carotene as well as 0.2 g a LFEGPG/Datem (diacetyl tartaric acid esters of mono- and diglycerides) mixture (93/7, by wt) and 2 mg β-carotene were dissolved in chloroform. […]

Series [3] is described as follows: In situ incorporation of carotenoids from carrot juice into LFEGPG (absorbance at 448 nm). The note with it: Silverson. Here is the method:
• 1) 1 g solid LFEGPG was added to 100 ml cold carrot juice (97% pure fresh carrot juice, Zonnatura B.V Zoetermeer, Netherlands). The mixture was warmed up to 50° C. and kept at this temperature for 30 min with magnetic stirring. Homogenization was performed with a Silverson homogenizer at ˜5500 rpm followed by another hydration step for 5 min at 50° C. • The LFEGPG phase was filtrated, collected and dissolved in hexane. The β-carotene content was determined spectrophotometrically (absorbance at 448 nm) to be 0.68 mg β-carotene/g dry lipid phase (corrected for a water content of the hydrated LFEGPG phase of 30%). • (2) 2 g LFEGPG were melted at 50° C. and added dropwise to 100 ml carrot juice kept at 50° C. Magnet stirring was performed for 1 hour at 50° C., then the solution was homogenized with a Silverson homogenizer (4500 rpm for 1 minute) and magnet stirred at 50° C. for another 1 hour. The LFEGPG phase was collected by filtration and dissolved in hexane. The β-carotene content was spectrophotometrically determined (absorbance at 448 nm) to be 1.5 mg β-carotene/g dry LFEGPG. […] Magnet stirring was performed for 20 min at 50° C., Silverson (4500 rpm, 1 min.), and magnet stirred at 50° C. for another 10 min at 50° C. The LFEGPG phase was collected by filtration and dissolved in hexane. The β-carotene content was spectrophotometrically determined (absorbance at 448 nm) to be 2.0 mg β-carotene/g dry LFEGPG.

As for `CC1=C(/C=C/C(C)=C/C=C/C(C)=C/C=C/C=C(C)/C=C/C=C(C)/C=C/C2=C(C)CCCC2(C)C)C(C)(C)CCC1` [β-carotene], the “solubility of β-carotene in the bile solution, from the initial amount (6 mg)” value in series [1] is reported as roughly 0%. Also, the “β-carotene detected in collected lipid phase” value in series [2] (Example 6 (1) A: 1 g LFEGPG and 2.4 mg β-carotene added to 100 ml water, stirred 1 h at 50° C.) was 1.7 mg β-carotene/g dry LFEGPG. Besides, the β-carotene recovered in series [2] (Example 6 (1) B: 1 g LFEGPG and 2.4 mg β-carotene melted together, added dropwise to 100 ml water, Ultra Turrax) turned out to be 2.2 mg. Besides, the “β-carotene content of LFEGPG phase” value in series [3] (Example 7 (1): 1 g solid LFEGPG in 100 ml cold carrot juice, 50° C. 30 min, corrected for 30% water content) was 0.68 mg β-carotene/g dry lipid phase; in series [3] (Example 7 (2): 2 g molten LFEGPG in 100 ml carrot juice, 1 hour stirring, another 1 hour, 50° C.), 1.5 mg β-carotene/g dry LFEGPG; in series [3] (Example 7 (3): 1 g molten LFEGPG in 100 ml carrot juice, 20 min stirring, another 10 min, 50° C.) it was 2.0 mg β-carotene/g dry LFEGPG.
